Peptide text beside a SMILES is read from it.
Test system: dendritic cells
Assay: Oligolysine induced toxicity to dendritic cells
Format: cell-based
Details: 1.5 μg/mL K20, different time intervals
Description: FIGS. 15A and 15B show oligolysine induced toxicity to dendritic cells. FIG. 15A: Freshly harvested dendritic cells were incubated with 1.5 μg/mL K20 for different time intervals. […] FIG. 15B: Confocal image of dendritic cells incubated with oligolysine (K20) peptide-coated, cy5 labeled DNA nanostructure.

With NCCCC[C@H](NC(=O)[C@H](CCCCN)NC(=O)[C@H](CCCCN)NC(=O)[C@H](CCCCN)NC(=O)[C@H](CCCCN)NC(=O)[C@H](CCCCN)NC(=O)[C@H](CCCCN)NC(=O)[C@H](CCCCN)NC(=O)[C@H](CCCCN)NC(=O)[C@H](CCCCN)NC(=O)[C@H](CCCCN)NC(=O)[C@H](CCCCN)NC(=O)[C@H](CCCCN)NC(=O)[C@H](CCCCN)NC(=O)[C@H](CCCCN)NC(=O)[C@H](CCCCN)NC(=O)[C@H](CCCCN)NC(=O)[C@H](CCCCN)NC(=O)[C@H](CCCCN)NC(=O)[C@@H](N)CCCCN)C(=O)O [K20] (H-KKKKKKKKKKKKKKKKKKKK-OH) the “appearance of dendritic cells under a microscope” value was “cells appeared healthy”.

— patent US20160271268A1, “NUCLEIC ACID NANOSTRUCTURES FOR IN VIVO AGENT DELIVERY” (DANA-FARBER CANCER INSTITUTE, INC., priority 2013, published 2016)
